Data published in patent US20200407712A1, “ARRAY-BASED CYCLIC PEPTIDE LIBRARIES” (HealthTell Inc., priority 2018, published 2020).

Columns and labels:
[1] = tested on: Ferredoxin NADP+ Reductase (FNR); assay: FNR counter screen on linear and lactam constrained peptide microarrays; assay type: binding; settings: 10.0 nM protein applied to the array; for FNR Lactam, log 10 transformed median intensity: lactam constrained library peptide; for FNR Linear, log 10 transformed median intensity: linear library peptide
From the text: (§1) Diaphorase is NAD(P)H dehydrogenase (UniProtKB: P15559) encoded by the NQO1 gene. Diaphorase has utility as a model enzyme; for which peptide based synthetic affinity agents to diaphorase are required. A 3.3 million feature peptide array was used to identify potential binding partner peptides for diaphorase. Ferredoxin NADP+ Reductase (FNR) and Ferredoxin are included as counter screens for a specific application, while immunoglobulin depleted human serum (Non-Immunoglobulin Serum Components or NISC) was used as a complex mixture to control for generally sticky peptides.
(§2) Peptide arrays were prepared for protein binding by pretreating the arrays in PBST for 30 min at […]. Direct labeled diaphorase (Alexa Fluor™ 555), direct labeled FNR (Alexa Fluor™ 555) and biotinylated ferredoxin were applied to the arrays at 1.0 and 10.0 nM along with direct labeled NISC at 0.001 mg/mL for 1 hr at 37° C. Arrays were washed 3× with PBST and Streptavidin-Alexa Fluor™ 555 was applied to the biotinylated ferredoxin and streptavidin alone arrays. All other arrays received PBST and were incubated for 1 hr at 37° C. Arrays were washed with PBST and p53Ab1-Alexa Fluor™ 647 applied to all arrays to illuminate the edge fiducials for 10 min at 37° C. Following the final incubation arrays were washed in PBST and water, dried and imaged on the ImageXpress ([…]). Triplicate arrays were used for the subsequent analysis except for when rejection of an array was necessary due to the presence of artifacts. Data were analyzed using a custom R script.

[2] = tested on: Non-Immunoglobulin Serum Components (NISC); assay: NISC counter screen on linear and lactam constrained peptide microarrays; assay type: binding, human; settings: 0.001 mg/mL NISC applied to the array; for NISC Lactam, log 10 transformed median intensity: lactam constrained library peptide; for NISC Linear, log 10 transformed median intensity: linear library peptide
From the text: as §1, §2
Peptides were also selected based on the difference in log 10 transformed intensities between diaphorase and NISC as the counter screen agent (LFGdiaphorase minus LFGNISC). Intensities for 10.0 nM diaphorase and 0.001 mg/mL NISC are shown in FIG. 29A where intensities plotted are the log 10 transformed median intensity from replicate arrays. Coloring of the points represents the density of features at that intensity using a grey colorscale. Light grey represents areas of low peptide numbers while black represents the intensity having the highest number of peptides. The diagonal line is equivalence line. Selectivity vs NISC was not dependent on cyclization as diaphorase also bound the linear forms for some peptides (Table 4). Three peptides having the highest degree of cyclization in the quality control assay were identified and binding intensities compared to other library peptides having one or two amino acid substitutions (FIG. 30) Each CLUSTAL alignment contains the library peptides having a maximum of two substitutions to the parent peptide. Dark grey highlights indicate a residue conserved in more than 60% of the peptides. Light grey highlights indicate chemically similar amino acids to the conserved residue. The amino acid usage is indicated in the sequence logo above the alignment. Substitutional analysis provides confidence in the array data by indicating which residues are important for binding.

Streptavidin = Streptavidin (Streptomyces avidinii, UniProt P22629); assay: Streptavidin-Alexa Fluor 555 alone on linear and lactam constrained peptide microarrays; assay type: binding; settings: for Streptavidin Lactam, log 10 transformed median intensity: lactam constrained library peptide; for Streptavidin Linear, log 10 transformed median intensity: linear library peptide
Streptavidin, sequence (P22629 25-183, species assumed): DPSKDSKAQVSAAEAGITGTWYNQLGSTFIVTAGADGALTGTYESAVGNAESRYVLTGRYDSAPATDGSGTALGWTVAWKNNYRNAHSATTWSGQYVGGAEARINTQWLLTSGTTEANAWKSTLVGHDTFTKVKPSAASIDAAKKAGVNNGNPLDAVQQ
Procedure: as §2

human diaphorase (NQO1) = molecular target: T1, human diaphorase (NQO1) (Homo sapiens, UniProt P15559); assay: Alexa Fluor 555-diaphorase binding to linear and lactam constrained peptide microarrays; settings: 10.0 nM protein applied to the array; for Diaphorase Lactam, log 10 transformed median intensity: lactam constrained library peptide; for Diaphorase Linear, log 10 transformed median intensity: linear library peptide
T1 construct: purchased SigmaAldrich
T1 sequence (P15559 whole entry): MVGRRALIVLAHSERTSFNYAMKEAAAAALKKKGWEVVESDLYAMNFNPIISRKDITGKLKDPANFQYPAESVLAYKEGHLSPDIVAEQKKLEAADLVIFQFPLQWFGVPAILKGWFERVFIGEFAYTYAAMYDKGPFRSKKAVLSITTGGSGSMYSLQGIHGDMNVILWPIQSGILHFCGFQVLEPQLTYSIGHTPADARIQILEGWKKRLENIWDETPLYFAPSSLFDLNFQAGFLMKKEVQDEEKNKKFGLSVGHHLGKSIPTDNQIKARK
From the text: as §1
Two wafers from the same synthesis batch were obtained where one wafer was prepared with the lactam chemistry and constrained into a cyclized form. The degree of cyclization was confirmed using the biotinylation assay described in Examples 9, 17, and 19.
as §2
Intensities plotted are the log 10 transformed median intensity from replicate arrays. Coloring of the points represents the density of features at that intensity using a gray-scale map. Light grey represents areas of low peptide numbers while black represents the intensity having the highest number of peptides. The diagonal line is equivalence line. […] CLUSTAL sequence alignment (FIG. 27B) of the sequences indicated similarities in amino acid composition. Highlighted amino acids are conserved in over 60% of the peptides for that position or are a chemically similar amino acid (ie: F and Y).
The sequences contain similar amino acid usage. Four peptides having the highest degree of cyclization in the quality control assay were identified and binding intensities compared to other library peptides having one or two amino acid substitutions as shown in FIG. 28. Substitutional analysis provides confidence in the array data by indicating which residues are important for binding. Dark grey boxes highlight indicate a residue conserved in more than 60% of the peptides. Light grey boxes highlight indicate chemically similar amino acids to the conserved residue. RFI is the intensity is the median replicate log 10 intensity for the 10.0 nM Diaphorase.

Ferredoxin = assay: Biotinylated ferredoxin counter screen on linear and lactam constrained peptide microarrays; assay type: binding; settings: 10.0 nM biotinylated protein, detected with Streptavidin-Alexa Fluor 555; for Ferredoxin Lactam, log 10 transformed median intensity: lactam constrained library peptide; for Ferredoxin Linear, log 10 transformed median intensity: linear library peptide
From the text: as §1, §2

Substance | FNR Lactam, log 10 transformed median intensity [1] | FNR Linear, log 10 transformed median intensity [1] | NISC Lactam, log 10 transformed median intensity [2] | NISC Linear, log 10 transformed median intensity [2] | Streptavidin Lactam, log 10 transformed median intensity (Streptavidin) | Streptavidin Linear, log 10 transformed median intensity (Streptavidin) | Diaphorase Lactam, log 10 transformed median intensity (human diaphorase (NQO1)) | Diaphorase Linear, log 10 transformed median intensity (human diaphorase (NQO1)) | Ferredoxin Lactam, log 10 transformed median intensity (Ferredoxin) | Ferredoxin Linear, log 10 transformed median intensity (Ferredoxin)
IGPNPKNN [library array peptide, tested lactam constrained and linear] | 2.54 | 2.57 | 2.65 | 2.78 | 2.52 | 2.52 | 4.34 | 4.22 | 2.56 | 2.59
PFSGQPNS [library array peptide, tested lactam constrained and linear] | 2.58 | 2.58 | 2.67 | 2.63 | 2.57 | 2.56 | 4.38 | 3.70 | 2.59 | 2.59
PGKPNTQ [library array peptide, tested lactam constrained and linear] | 2.54 | 2.7 | 2.68 | 2.84 | 2.51 | 2.53 | 4.36 | 4.15 | 2.55 | 2.63
PNYSSAP [library array peptide, tested lactam constrained and linear] | 2.56 | 2.54 | 2.63 | 2.61 | 2.52 | 2.52 | 4.31 | 3.91 | 2.56 | 2.55
PPYPNQYQ [library array peptide, tested lactam constrained and linear] | 2.55 | 2.56 | 2.69 | 2.69 | 2.53 | 2.53 | 4.39 | 4.04 | 2.58 | 2.58
PPYTYANN [library array peptide, tested lactam constrained and linear] | 2.54 | 2.53 | 2.66 | 2.63 | 2.53 | 2.52 | 4.35 | 4.00 | 2.56 | 2.55
PTSSYLN [library array peptide, tested lactam constrained and linear] | 2.53 | 2.53 | 2.63 | 2.61 | 2.52 | 2.53 | 4.32 | 3.75 | 2.56 | 2.55
PYSNVFQG [library array peptide, tested lactam constrained and linear] | 2.56 | 2.56 | 2.72 | 2.66 | 2.54 | 2.54 | 4.43 | 3.88 | 2.59 | 2.57
QPQSQQSQ [library array peptide, tested lactam constrained and linear] | 2.55 | 2.55 | 2.59 | 2.59 | 2.53 | 2.54 | 4.28 | 3.42 | 2.56 | 2.56
TFGFNGFP [library array peptide, tested lactam constrained and linear] | 2.59 | 2.55 | 3.49 | 2.62 | 2.53 | 2.52 | 4.49 | 2.84 | 2.70 | 2.55
TFSSFAPV [library array peptide, tested lactam constrained and linear] | 2.56 | 2.55 | 3.36 | 2.65 | 2.53 | 2.53 | 4.52 | 2.86 | 2.70 | 2.55
TISYPLTP [library array peptide, tested lactam constrained and linear] | 2.56 | 2.53 | 3.49 | 2.59 | 2.54 | 2.53 | 4.55 | 2.86 | 2.84 | 2.55
